Test results from patent US12649733B2, “3,6-diamino-pyridazin-3-yl derivatives, pharmaceutical compositions containing them and their uses as pro-apoptotic agents” (LES LABORATOIRES SERVIER, priority 2019, dated 2026).

Key:
[1] = tested on: H146 cells; assay: H146 cell viability, MTT assay; type: cell-based; details: Homo sapiens, NCI-H146, 48 h, 48 h exposure
Experimental: (§1) MTT colorimetric assay is based on the mitochondrial reduction of tetrazolium salt by living cells. The viable cell number is proportional to the production of formazan salts, which can be read spectrophotometrically at 540 nm.
(§2) MOLT-4 and H146 cells were purchased from ATCC and cultivated in RPMI 1640 supplemented with 10% heat inactivated fetal bovine serum, penicillin (100 IU/ml), streptomycin (100 μg/ml) and L-glutamine (2 mM). Cells were cultured at 37° C. in a humidified atmosphere containing 5% CO2. Cells were seeded in 96 microwell plates (150 μL per well) and exposed to the compounds for 48 h (3.16 fold serially diluted; 9 concentrations each, triplicates). At the end of incubation time, 15 μL of MTT solution (5 mg/ml) were added per well and the cells were incubated for another 4 h. Then, 100 μL of 10% Sodium Dodecyl Sulfate (SDS)/HCl 10 mM were added per well and the plate was incubated overnight, before measurement of optical density at 540 nm. IC50s were calculated using standard four-parametric curve fitting.

[2] = biological target: BCLXL (Homo sapiens, UniProt Q07817, V10N/V9A); assay: Fluorescence polarisation assay (PUMA-based probe displacement); type: binding; also: 20 nM protein, 10 nM fluorescent probe
BCLXL, sequence (Q07817 with tags, fused parts or gaps V9A/V10N): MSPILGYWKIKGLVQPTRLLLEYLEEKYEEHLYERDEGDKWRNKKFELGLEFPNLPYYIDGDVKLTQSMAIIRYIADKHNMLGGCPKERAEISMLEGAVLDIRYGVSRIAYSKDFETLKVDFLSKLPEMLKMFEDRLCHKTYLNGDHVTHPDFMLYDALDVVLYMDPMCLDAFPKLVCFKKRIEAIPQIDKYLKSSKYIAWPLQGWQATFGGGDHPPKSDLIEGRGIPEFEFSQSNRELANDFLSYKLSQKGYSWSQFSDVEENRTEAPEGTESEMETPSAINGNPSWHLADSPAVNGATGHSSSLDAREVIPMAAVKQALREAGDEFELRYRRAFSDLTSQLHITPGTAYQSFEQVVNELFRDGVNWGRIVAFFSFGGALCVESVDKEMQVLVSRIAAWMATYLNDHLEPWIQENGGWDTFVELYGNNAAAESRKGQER
Experimental: Fluorescence polarization measures the rotation of a fluorescing species in solution, the larger the molecule the more polarized the fluorescence emission.
[[…]] (GST UniProtKB® primary accession number P08515 and BCLXL UniProtKB® primary accession number Q07817-1),
resulting in an increase in anisotropy. If a compound is added which competitively binds to the same site as the probe, thereby releasing it, anisotropy decreases due to the increased amount of free probe.
An 11-point serial dilution of each compound was prepared in DMSO, the final buffer conditions were 10 mM 4-(2-hydroxyethyl)-1-piperazineethanesulfonic acid [HEPES], 150 mM NaCl, 0.05% Tween 20, pH 7.4 and 5% DMSO. The final protein concentration in the assay was 20 nM with the fluorescent probe present at 10 nM. The experiments were incubated for 2 hours at 23° C. before fluorescence polarization was measured on a Biotek SynergyNeo plate reader (Excitation 485 nm, emission 525 nm, parallel and perpendicular reads). […] The KI values were determined from the IC50 values according to Cer et al, Nucleic Acids Res, 2009, Jul. 1: 37(WebServer issue): W441-W445.

[3] = tested on: MOLT-4 cells; assay: MOLT-4 cell viability, MTT assay; type: cell-based; details: Homo sapiens, MOLT-4, 48 h, 48 h exposure
Experimental: as §1, §2

Q: Which IC50 [1] does the source give for CN(c1ccc(Nc2nc3ccccc3s2)nn1)c1cccc(C(=O)O)n1 [Example 38, 6-({6-[(1,3-Benzothiazol-2-yl)amino]pyridazin-3-yl}(methyl)amino)pyridine-2-carboxylic acid] here?
A: > 15 µM

Q: And the Ki [2]?
A: 250000 nM

Q: And the IC50 [3]?
A: > 15 µM

Q: Cc1cc(N(C)c2nc(C(=O)O)c(N3CCC(COc4ccccc4)CC3)s2)nnc1Nc1nc2ccccc2s1 [Example 88, 2-({6-[(1,3-Benzothiazol-2-yl)amino]-5-methylpyridazin-3-yl}(methyl)amino)-5-[4-(phenoxymethyl)piperidin-1-yl]-1,3-thiazole-4-carboxylic acid] was tested. Which IC50 [1] did it give?
A: 11 µM

Q: And the Ki [2]?
A: 2.8 nM

Q: And the IC50 [3]?
A: 1.61 µM

Q: With COCc1c(Nc2nc3ccccc3s2)nnc(Nc2nc(C(=O)O)cs2)c1C [Example 28, 2-({6-[(1,3-Benzothiazol-2-yl)amino]-5-(methoxymethyl)-4-methylpyridazin-3-yl}amino)-1,3-thiazole-4-carboxylic acid] as the molecule, how does the IC50 [1] read?
A: > 15 µM

Q: And the Ki [2]?
A: 130 nM

Q: What about the IC50 [3] of the same molecule?
A: > 15 µM

Q: Cc1cc(N(CCN2CCOCC2)c2nc(C(=O)O)cs2)nnc1Nc1nc2ccccc2s1 [Example 41, 2-({6-[(1,3-Benzothiazol-2-yl)amino]-5-methylpyridazin-3-yl}[2-(morpholin-4-yl)ethyl]amino)-1,3-thiazole-4-carboxylic acid] was tested. Which IC50 [1] did it give?
A: ≥ 9.76 µM

Q: And the Ki [2]?
A: 37 nM

Q: And the IC50 [3]?
A: > 13 µM

Q: For Cc1cc(N(C)c2nc(C(=O)O)c(N3CC[C@H](OCc4ccccc4)C3)s2)nnc1Nc1nc2ccccc2s1 [Example 70, 2-({6-[(1,3-Benzothiazol-2-yl)amino]-5-methylpyridazin-3-yl}(methyl)amino)-5-[(3S)-3-(benzyloxy)pyrrolidin-1-yl]-1,3-thiazole-4-carboxylic acid], which IC50 [1] is on record?
A: > 15 µM

Q: And the Ki [2]?
A: 30 nM

Q: And the IC50 [3]?
A: > 41.6 µM

Q: Cc1c(Nc2nc(C(=O)O)c(-c3cnn(CC45CC6CC(CC(C6)C4)C5)c3C)s2)nnc(Nc2nc3ccccc3s2)c1C [Example 33, 5-{1-[(Adamantan-1-yl)methyl]-5-methyl-1H-pyrazol-4-yl}-2-({6-[(1,3-benzothiazol-2-yl)amino]-4,5-dimethylpyridazin-3-yl}amino)-1,3-thiazole-4-carboxylic acid] was tested. Which IC50 [1] did it give?
A: 4.37 µM

Q: What about the Ki [2] of the same molecule?
A: 64 nM

Q: And the IC50 [3]?
A: 6.25 µM

Q: For Cc1c(Nc2nc(C(=O)O)cs2)nnc(Nc2nc3cc(F)ccc3s2)c1C [Example 58, 2-[[6-[(5-Fluoro-1,3-benzothiazol-2-yl)amino]-4,5-dimethyl-pyridazin-3-yl]amino]thiazole-4-carboxylic acid], which IC50 [1] is on record?
A: > 15 µM

Q: What about the Ki [2] of the same molecule?
A: 49 nM

Q: And the IC50 [3]?
A: > 15 µM

Q: Which IC50 [1] does the source give for Cc1cc(N(C)c2nc(C(=O)O)c(N3CC[C@@H](OCc4ccccc4)C3)s2)nnc1Nc1nc2ccccc2s1 [Example 71, 2-({6-[(1,3-Benzothiazol-2-yl)amino]-5-methylpyridazin-3-yl}(methyl)amino)-5-[(3R)-3-(benzyloxy)pyrrolidin-1-yl]-1,3-thiazole-4-carboxylic acid] here?
A: > 15 µM

Q: What about the Ki [2] of the same molecule?
A: > 10000 nM

Q: What about the IC50 [3] of the same molecule?
A: > 15 µM

Q: What does the source list for Cc1cc(N(C)c2nc(C(=O)O)c(CCCOc3ccc(C#CCN(C)C(=O)OC(C)(C)C)cc3F)s2)nnc1Nc1nc2ccccc2s1 [Example 82, 2-({6-[(1,3-Benzothiazol-2-yl)amino]-5-methylpyridazin-3-yl}(methyl)amino)-5-{3-[4-(3-{[(tert-butoxy)carbonyl](methyl)amino}prop-1-yn-1-yl)-2-fluorophenoxy]propyl}-1,3-thiazole-4-carboxylic acid]?
A: IC50 [1]: 0.0988 µM; Ki [2]: < 1 nM; IC50 [3]: 0.0683 µM

Q: CN(c1cc(C2CC2)c(Nc2nc3ccccc3s2)nn1)c1nc(C(=O)O)cs1 [Example 31, 2-({6-[(1,3-Benzothiazol-2-yl)amino]-5-cyclopropylpyridazin-3-yl}(methyl)amino)-1,3-thiazole-4-carboxylic acid] was tested. Which IC50 [1] did it give?
A: 4.19 µM

Q: What about the Ki [2] of the same molecule?
A: 2.6 nM

Q: What about the IC50 [3] of the same molecule?
A: 2.34 µM

Q: For Cc1cc(N(C)c2nc(C(=O)O)c(C3CCC3)s2)nnc1Nc1nc2ccccc2s1 [Example 78, 2-({6-[(1,3-Benzothiazol-2-yl)amino]-5-methylpyridazin-3-yl}(methyl)amino)-5-cyclobutyl-1,3-thiazole-4-carboxylic acid], which IC50 [1] is on record?
A: > 15 µM

Q: And the Ki [2]?
A: 110 nM

Q: What about the IC50 [3] of the same molecule?
A: > 15 µM

Q: For Cc1c(Nc2nc(C(=O)O)c(CCCOc3ccccc3F)s2)nnc(Nc2nc3ccccc3s2)c1C [Example 13, 2-({6-[(1,3-Benzothiazol-2-yl)amino]-4,5-dimethylpyridazin-3-yl}amino)-5-[3-(2-fluorophenoxy)propyl]-1,3-thiazole-4-carboxylic acid], which IC50 [1] is on record?
A: 0.292 µM

Q: And the Ki [2]?
A: 3.8 nM

Q: What about the IC50 [3] of the same molecule?
A: 2.23 µM

Q: For Cc1c(-c2sc(Nc3ccc(Nc4nc5ccccc5s4)nn3)nc2C(=O)O)cnn1CC12CC3CC(CC(C3)C1)C2 [Example 32, 5-{1-[(Adamantan-1-yl)methyl]-5-methyl-1H-pyrazol-4-yl}-2-({6-[(1,3-benzothiazol-2-yl)amino]pyridazin-3-yl}amino)-1,3-thiazole-4-carboxylic acid], which IC50 [1] is on record?
A: ≥ 7.42 µM

Q: What about the Ki [2] of the same molecule?
A: 260 nM

Q: And the IC50 [3]?
A: 13.3 µM

Q: For Cc1cc(N(C)c2nc(C(=O)O)c(C3CCN(C(=O)OC(C)(C)C)CC3)s2)nnc1Nc1nc2ccccc2s1 [Example 84, 2-({6-[(1,3-Benzothiazol-2-yl)amino]-5-methylpyridazin-3-yl}(methyl)amino)-5-{1-[(tert-butoxy)carbonyl]piperidin-4-yl}-1,3-thiazole-4-carboxylic acid], which IC50 [1] is on record?
A: > 15 µM

Q: What about the Ki [2] of the same molecule?
A: 49 nM

Q: And the IC50 [3]?
A: 7.57 µM

Q: Which IC50 [1] does the source give for COCCCN(c1cc(C)c(Nc2nc3ccccc3s2)nn1)c1nc(C(=O)O)c(-c2cnn(CC34CC5CC(CC(C5)C3)C4)c2C)s1 [Example 52, 5-{1-[(Adamantan-1-yl)methyl]-5-methyl-1H-pyrazol-4-yl}-2-({6-[(1,3-benzothiazol-2-yl)amino]-5-methylpyridazin-3-yl}(3-methoxypropyl)amino)-1,3-thiazole-4-carboxylic acid] here?
A: 13 µM

Q: And the Ki [2]?
A: 90 nM

Q: What about the IC50 [3] of the same molecule?
A: 8.36 µM

Q: For COCCCc1sc(N(CCCOC)c2cc(C)c(Nc3nc4ccccc4s3)nn2)nc1C(=O)O [Example 64, 2-({6-[(1,3-Benzothiazol-2-yl)amino]-5-methylpyridazin-3-yl}(3-methoxypropyl)amino)-5-(3-methoxypropyl)-1,3-thiazole-4-carboxylic acid], which IC50 [1] is on record?
A: 0.0224 µM

Q: What about the Ki [2] of the same molecule?
A: 31 nM

Q: And the IC50 [3]?
A: 3.59 µM

Q: CCN(CC)CCCN(c1cc(C)c(Nc2nc3ccccc3s2)nn1)c1nc(C(=O)O)cs1 [Example 46, 2-({6-[(1,3-Benzothiazol-2-yl)amino]-5-methylpyridazin-3-yl}[3-(diethylamino)propyl]amino)-1,3-thiazole-4-carboxylic acid] was tested. Which IC50 [1] did it give?
A: > 15 µM

Q: What about the Ki [2] of the same molecule?
A: 190 nM

Q: What about the IC50 [3] of the same molecule?
A: > 15 µM

Q: What does the source list for CCCN(c1cc(C)c(Nc2nc3ccccc3s2)nn1)c1nc(C(=O)O)cs1 [Example 45, 2-({6-[(1,3-Benzothiazol-2-yl)amino]-5-methylpyridazin-3-yl}(propyl)amino)-1,3-thiazole-4-carboxylic acid]?
A: IC50 [1]: ≥ 11.8 µM; Ki [2]: 14 nM; IC50 [3]: 11.7 µM

Q: Cc1cc(N(C)c2nc(C(=O)O)c(N3CC(OCc4ccccc4)C3)s2)nnc1Nc1nc2ccccc2s1 [Example 68, 2-({6-[(1,3-Benzothiazol-2-yl)amino]-5-methylpyridazin-3-yl}(methyl)amino)-5-[3-(benzyloxy)azetidin-1-yl]-1,3-thiazole-4-carboxylic acid] was tested. Which IC50 [1] did it give?
A: 2.6 µM

Q: And the Ki [2]?
A: 5.7 nM

Q: What about the IC50 [3] of the same molecule?
A: 0.279 µM

Q: What does the source list for COCCCC1(Cn2ncc(-c3sc(Nc4nnc(Nc5nc6ccccc6s5)c(C)c4C)nc3C(=O)O)c2C)CCCCCCC1 [Example 35, 2-({6-[(1,3-Benzothiazol-2-yl)amino]-4,5-dimethylpyridazin-3-yl}amino)-5-(1-{[1-(3-methoxypropyl)cyclooctyl]methyl}-5-methyl-1H-pyrazol-4-yl)-1,3-thiazole-4-carboxylic acid]?
A: IC50 [1]: 2.33 µM; Ki [2]: 59 nM; IC50 [3]: 3.7 µM

Q: Which IC50 [1] does the source give for O=C(O)c1cccc(Nc2nnc(Nc3nc4ccccc4s3)c3c2CCCC3)n1 [Example 24, 6-[[4-(1,3-Benzothiazol-2-ylamino)-5,6,7,8-tetrahydrophthalazin-1-yl]amino]pyridine-2-carboxylic acid] here?
A: 6.93 µM

Q: And the Ki [2]?
A: 140 nM

Q: And the IC50 [3]?
A: 3.31 µM

Q: Which IC50 [1] does the source give for CCOCc1c(Nc2nc(C(=O)O)cs2)nnc(Nc2nc3ccccc3s2)c1C [Example 30, 2-({6-[(1,3-Benzothiazol-2-yl)amino]-4-(ethoxymethyl)-5-methylpyridazin-3-yl}amino)-1,3-thiazole-4-carboxylic acid] here?
A: > 15 µM

Q: And the Ki [2]?
A: 81 nM

Q: What about the IC50 [3] of the same molecule?
A: 8.67 µM
